Measured values: patent US9492471B2, “Methods of treating a disease or disorder associated with Bruton'S Tyrosine Kinase” (Celgene Avilomics Research, Inc., priority 2013, dated 2016)
Read-outs that look alike come from different tables or passages of the source.

Assays:
Assay in all cases: HotSpot kinase profiling
Format in all cases: biochemical
[1] = biological target: T1, PKCb1 (Homo sapiens, UniProt P05771)
T1 construct: purchased Reaction Biology Corp
Summary of the method: (§1)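 Radiometric kinase assay with P81 filter capture; each kinase was added to fresh substrate plus cofactors in reaction buffer and incubated 2 h at room temperature. Unreacted phosphate was washed off with 0.1% phosphoric acid before detection; percent inhibition is relative to DMSO control, averaged over replicates.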

[2] = biological target: T2, PKAcb (Homo sapiens, UniProt P22694)
T2 construct: purchased Reaction Biology Corp
Summary of the method: as §1

[3] = biological target: T3, ERK7/MAPK15 (Homo sapiens, UniProt Q8TD08)
T3 construct: purchased Reaction Biology Corp
T3 sequence (Q8TD08 1-544): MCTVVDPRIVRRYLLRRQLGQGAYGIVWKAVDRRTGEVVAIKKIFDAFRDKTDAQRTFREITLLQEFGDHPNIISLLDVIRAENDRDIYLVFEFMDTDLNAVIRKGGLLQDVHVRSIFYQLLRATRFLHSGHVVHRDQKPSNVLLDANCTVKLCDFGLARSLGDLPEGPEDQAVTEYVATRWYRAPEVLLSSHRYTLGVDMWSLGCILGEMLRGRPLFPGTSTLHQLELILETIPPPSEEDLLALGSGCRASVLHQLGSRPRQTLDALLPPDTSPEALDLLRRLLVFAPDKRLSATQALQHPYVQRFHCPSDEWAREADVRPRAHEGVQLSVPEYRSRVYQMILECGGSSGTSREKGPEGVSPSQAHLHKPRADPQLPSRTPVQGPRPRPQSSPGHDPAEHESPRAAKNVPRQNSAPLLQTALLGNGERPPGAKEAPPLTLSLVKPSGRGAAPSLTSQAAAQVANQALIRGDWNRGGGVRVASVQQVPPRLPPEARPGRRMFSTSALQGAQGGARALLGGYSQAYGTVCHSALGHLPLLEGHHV
Summary of the method: as §1

[4] = biological target: T4, CDK3/cyclin E (Homo sapiens, UniProt Q00526)
T4 construct: purchased Reaction Biology Corp
Summary of the method: as §1

[5] = biological target: T5, RSK3 (Homo sapiens, UniProt Q15349)
T5 construct: purchased Reaction Biology Corp
Summary of the method: as §1

[6] = biological target: T6, OSR1/OXSR1 (Homo sapiens, UniProt O95747)
T6 construct: purchased Reaction Biology Corp
Summary of the method: as §1

[7] = biological target: T7, STK39/STLK3 (Homo sapiens, UniProt Q9UEW8)
T7 construct: purchased Reaction Biology Corp
Summary of the method: as §1

[8] = biological target: T8, CAMK2a (Homo sapiens, UniProt Q9UQM7)
T8 construct: purchased Reaction Biology Corp
Summary of the method: as §1

[9] = biological target: T9, PKCd (Homo sapiens, UniProt Q05655)
T9 construct: purchased Reaction Biology Corp
Summary of the method: as §1

[10] = biological target: T10, PLK4/SAK (Homo sapiens, UniProt O00444)
T10 construct: purchased Reaction Biology Corp
T10 sequence (O00444 1-970): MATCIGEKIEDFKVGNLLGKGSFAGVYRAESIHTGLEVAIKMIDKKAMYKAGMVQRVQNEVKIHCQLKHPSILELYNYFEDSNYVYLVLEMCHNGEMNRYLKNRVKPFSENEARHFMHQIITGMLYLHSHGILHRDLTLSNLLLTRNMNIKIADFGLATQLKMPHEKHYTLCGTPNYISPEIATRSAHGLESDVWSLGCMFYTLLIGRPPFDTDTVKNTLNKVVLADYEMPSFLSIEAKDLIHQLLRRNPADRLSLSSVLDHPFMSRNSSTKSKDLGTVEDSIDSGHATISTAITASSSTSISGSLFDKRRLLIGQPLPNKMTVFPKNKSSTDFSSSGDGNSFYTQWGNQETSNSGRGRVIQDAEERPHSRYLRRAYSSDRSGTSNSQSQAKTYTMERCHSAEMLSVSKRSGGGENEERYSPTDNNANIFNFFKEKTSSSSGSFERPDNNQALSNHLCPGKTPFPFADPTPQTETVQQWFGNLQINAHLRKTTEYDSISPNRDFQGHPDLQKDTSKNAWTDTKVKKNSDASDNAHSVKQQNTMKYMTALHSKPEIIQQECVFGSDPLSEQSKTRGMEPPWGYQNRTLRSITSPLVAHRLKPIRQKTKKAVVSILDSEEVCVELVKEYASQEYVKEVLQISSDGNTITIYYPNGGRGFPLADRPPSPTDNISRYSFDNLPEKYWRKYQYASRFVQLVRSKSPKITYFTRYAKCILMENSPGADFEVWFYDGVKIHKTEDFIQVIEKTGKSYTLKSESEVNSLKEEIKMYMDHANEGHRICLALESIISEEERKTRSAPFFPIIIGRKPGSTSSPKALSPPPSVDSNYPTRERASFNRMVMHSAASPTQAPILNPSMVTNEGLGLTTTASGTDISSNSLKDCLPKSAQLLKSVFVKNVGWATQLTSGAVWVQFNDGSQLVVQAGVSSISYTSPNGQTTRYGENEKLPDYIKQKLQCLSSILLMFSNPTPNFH
Summary of the method: as §1

[11] = biological target: T11, MINK/MINK1 (Homo sapiens, UniProt Q8N4C8)
T11 construct: purchased Reaction Biology Corp
Summary of the method: as §1

[12] = read-out: % Enzyme Activity (relative to DMSO controls) Run 1
[13] = read-out: % Enzyme Activity (relative to DMSO controls) Run 2

T11 sequence (Q8N4C8 whole entry): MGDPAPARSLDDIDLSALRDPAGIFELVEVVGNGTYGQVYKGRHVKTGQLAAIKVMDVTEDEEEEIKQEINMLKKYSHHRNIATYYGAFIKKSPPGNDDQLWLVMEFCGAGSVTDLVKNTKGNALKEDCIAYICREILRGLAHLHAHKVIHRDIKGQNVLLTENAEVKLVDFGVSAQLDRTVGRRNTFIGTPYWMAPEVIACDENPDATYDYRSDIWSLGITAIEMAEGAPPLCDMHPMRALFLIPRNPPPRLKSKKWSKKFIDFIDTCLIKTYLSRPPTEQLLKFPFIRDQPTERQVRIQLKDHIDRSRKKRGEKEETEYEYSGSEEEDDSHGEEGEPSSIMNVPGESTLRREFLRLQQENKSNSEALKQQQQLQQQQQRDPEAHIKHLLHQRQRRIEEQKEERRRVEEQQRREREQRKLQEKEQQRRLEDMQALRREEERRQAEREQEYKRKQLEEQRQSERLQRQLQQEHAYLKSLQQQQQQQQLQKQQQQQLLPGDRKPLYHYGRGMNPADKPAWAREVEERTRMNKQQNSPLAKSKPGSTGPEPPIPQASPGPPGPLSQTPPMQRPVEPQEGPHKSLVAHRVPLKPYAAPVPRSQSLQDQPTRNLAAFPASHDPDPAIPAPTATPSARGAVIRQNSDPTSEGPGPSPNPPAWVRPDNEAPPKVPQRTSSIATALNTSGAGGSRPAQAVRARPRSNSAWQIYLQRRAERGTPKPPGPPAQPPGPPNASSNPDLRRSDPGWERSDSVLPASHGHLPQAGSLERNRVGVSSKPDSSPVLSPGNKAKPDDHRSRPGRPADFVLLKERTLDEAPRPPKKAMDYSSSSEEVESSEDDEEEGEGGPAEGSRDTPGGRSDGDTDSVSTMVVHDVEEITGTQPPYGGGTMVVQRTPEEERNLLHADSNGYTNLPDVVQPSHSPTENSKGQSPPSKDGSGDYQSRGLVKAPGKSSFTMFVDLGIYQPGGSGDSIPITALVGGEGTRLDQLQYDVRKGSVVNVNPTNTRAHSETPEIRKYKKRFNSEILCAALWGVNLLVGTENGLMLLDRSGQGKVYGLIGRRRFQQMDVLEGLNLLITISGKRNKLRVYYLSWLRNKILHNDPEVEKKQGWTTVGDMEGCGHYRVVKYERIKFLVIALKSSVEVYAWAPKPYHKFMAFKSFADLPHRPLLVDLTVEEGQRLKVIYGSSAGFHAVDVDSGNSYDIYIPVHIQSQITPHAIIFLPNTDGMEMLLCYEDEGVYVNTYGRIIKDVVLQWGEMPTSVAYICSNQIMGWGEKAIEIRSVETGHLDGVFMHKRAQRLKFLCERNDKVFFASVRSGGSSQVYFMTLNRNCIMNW
T9 sequence (Q05655 whole entry): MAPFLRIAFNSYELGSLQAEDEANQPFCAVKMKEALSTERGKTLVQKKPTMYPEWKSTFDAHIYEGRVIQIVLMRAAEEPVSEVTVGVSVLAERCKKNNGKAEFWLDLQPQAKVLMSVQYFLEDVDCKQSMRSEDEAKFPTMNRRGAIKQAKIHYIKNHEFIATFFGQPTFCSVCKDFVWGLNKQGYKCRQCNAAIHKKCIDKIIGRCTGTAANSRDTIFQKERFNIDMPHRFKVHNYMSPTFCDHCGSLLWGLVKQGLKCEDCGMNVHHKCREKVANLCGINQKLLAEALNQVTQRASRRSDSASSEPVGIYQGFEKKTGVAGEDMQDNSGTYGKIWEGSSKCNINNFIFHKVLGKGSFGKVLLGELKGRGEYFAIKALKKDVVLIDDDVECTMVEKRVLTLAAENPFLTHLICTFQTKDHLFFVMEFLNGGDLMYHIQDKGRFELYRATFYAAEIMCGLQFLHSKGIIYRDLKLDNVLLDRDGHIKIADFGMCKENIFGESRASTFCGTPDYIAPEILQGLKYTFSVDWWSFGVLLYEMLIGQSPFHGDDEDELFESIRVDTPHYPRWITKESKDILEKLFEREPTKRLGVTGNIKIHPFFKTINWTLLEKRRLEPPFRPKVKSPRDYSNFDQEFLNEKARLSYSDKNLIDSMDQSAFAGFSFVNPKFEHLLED
T6 sequence (O95747 whole entry): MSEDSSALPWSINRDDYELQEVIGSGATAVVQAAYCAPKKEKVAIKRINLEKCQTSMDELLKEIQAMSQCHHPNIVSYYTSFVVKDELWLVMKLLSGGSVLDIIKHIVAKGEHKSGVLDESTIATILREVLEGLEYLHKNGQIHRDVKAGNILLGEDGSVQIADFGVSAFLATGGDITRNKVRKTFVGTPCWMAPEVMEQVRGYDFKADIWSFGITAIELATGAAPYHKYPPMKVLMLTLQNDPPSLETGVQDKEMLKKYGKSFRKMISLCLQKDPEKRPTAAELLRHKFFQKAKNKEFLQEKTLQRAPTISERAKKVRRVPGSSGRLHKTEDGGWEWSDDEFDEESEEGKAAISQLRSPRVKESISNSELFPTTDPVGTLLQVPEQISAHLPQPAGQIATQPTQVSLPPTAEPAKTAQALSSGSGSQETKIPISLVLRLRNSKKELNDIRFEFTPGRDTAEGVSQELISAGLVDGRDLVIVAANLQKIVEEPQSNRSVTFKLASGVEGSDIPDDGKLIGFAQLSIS
T4 sequence (Q00526 whole entry): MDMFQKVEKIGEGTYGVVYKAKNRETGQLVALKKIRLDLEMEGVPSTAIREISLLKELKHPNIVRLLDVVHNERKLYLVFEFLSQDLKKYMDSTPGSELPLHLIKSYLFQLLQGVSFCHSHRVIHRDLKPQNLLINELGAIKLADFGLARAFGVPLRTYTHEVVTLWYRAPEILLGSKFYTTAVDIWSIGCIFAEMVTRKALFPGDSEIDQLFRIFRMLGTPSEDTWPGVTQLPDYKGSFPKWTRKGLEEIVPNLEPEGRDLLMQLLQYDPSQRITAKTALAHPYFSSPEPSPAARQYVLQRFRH
T4 sequence (P24864 whole entry partner): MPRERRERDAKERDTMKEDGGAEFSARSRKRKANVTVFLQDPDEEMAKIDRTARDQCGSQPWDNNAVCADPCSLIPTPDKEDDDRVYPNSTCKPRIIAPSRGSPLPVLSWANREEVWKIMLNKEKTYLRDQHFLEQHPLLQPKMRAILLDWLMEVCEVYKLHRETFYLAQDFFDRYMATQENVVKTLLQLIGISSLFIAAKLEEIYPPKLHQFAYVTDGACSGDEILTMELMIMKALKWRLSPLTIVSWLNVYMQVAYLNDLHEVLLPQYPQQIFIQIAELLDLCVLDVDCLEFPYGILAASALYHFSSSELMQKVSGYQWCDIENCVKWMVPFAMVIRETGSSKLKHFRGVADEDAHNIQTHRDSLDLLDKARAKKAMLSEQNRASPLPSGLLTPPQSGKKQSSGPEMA
T8 sequence (Q9UQM7 whole entry): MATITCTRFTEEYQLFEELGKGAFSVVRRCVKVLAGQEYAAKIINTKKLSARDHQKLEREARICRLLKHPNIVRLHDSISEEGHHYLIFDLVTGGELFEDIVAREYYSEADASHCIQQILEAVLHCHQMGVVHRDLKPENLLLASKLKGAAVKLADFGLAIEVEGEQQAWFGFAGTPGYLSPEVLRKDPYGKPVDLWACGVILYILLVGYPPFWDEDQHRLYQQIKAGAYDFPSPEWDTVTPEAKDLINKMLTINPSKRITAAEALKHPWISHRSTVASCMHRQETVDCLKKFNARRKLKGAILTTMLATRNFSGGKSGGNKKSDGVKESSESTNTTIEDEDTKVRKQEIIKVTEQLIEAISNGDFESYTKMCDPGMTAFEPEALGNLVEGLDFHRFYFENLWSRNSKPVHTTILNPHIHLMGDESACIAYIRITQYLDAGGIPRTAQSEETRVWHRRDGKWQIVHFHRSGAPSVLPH
T5 sequence (Q15349 whole entry): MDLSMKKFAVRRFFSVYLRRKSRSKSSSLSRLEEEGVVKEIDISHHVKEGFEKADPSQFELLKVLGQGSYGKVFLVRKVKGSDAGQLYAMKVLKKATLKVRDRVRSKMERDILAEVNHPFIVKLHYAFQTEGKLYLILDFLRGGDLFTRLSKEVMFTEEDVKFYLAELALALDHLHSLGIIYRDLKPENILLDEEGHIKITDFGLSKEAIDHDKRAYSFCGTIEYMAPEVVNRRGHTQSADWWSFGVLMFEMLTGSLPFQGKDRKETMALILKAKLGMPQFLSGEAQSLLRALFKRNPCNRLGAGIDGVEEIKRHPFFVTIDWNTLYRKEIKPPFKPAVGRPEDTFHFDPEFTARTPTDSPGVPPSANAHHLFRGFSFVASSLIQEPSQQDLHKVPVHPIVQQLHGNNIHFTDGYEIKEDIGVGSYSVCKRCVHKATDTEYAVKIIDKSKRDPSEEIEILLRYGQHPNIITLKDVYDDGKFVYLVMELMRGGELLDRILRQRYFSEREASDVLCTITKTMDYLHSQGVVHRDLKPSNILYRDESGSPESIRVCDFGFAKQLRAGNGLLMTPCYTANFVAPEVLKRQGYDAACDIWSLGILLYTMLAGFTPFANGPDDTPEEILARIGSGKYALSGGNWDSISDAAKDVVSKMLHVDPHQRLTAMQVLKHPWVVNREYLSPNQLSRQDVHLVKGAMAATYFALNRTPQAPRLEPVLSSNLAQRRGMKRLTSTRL

SMILES: C=CC(=O)Nc1cccc(Nc2nc(Nc3ccc(OCCOC)c(F)c3)ncc2F)c1 [Compound 2]
- inhibition at 3 µM [1]: 27.6%
- remaining activity at 3 µM [1, 12]: 72.7%
- remaining activity at 3 µM [1, 13]: 72.1%
- inhibition at 3 µM [2]: 49.6%
- remaining activity at 3 µM [2, 12]: 49.7%
- remaining activity at 3 µM [2, 13]: 51.1%
- inhibition at 3 µM [3]: 35.1%
- remaining activity at 3 µM [3, 12]: 63.8%
- remaining activity at 3 µM [3, 13]: 66%
- inhibition at 3 µM [4]: 22.4%
- remaining activity at 3 µM [4, 12]: 78.2%
- remaining activity at 3 µM [4, 13]: 77%
- inhibition at 3 µM [5]: 14.5%
- remaining activity at 3 µM [5, 12]: 85.8%
- remaining activity at 3 µM [5, 13]: 85.2%
- inhibition at 3 µM [6]: -19.2%
- remaining activity at 3 µM [6, 12]: 117%
- remaining activity at 3 µM [6, 13]: 122%
- inhibition at 3 µM [7]: 7.74%
- remaining activity at 3 µM [7, 12]: 91.6%
- remaining activity at 3 µM [7, 13]: 92.9%
- inhibition at 3 µM [8]: -9.6%
- remaining activity at 3 µM [8, 12]: 109%
- remaining activity at 3 µM [8, 13]: 110%
- inhibition at 3 µM [9]: 1.78%
- remaining activity at 3 µM [9, 12]: 100%
- remaining activity at 3 µM [9, 13]: 96%
- inhibition at 3 µM [10]: 45%
- remaining activity at 3 µM [10, 12]: 54.8%
- remaining activity at 3 µM [10, 13]: 55.2%
- inhibition at 3 µM [11]: 0.9%
- remaining activity at 3 µM [11, 12]: 101%
- remaining activity at 3 µM [11, 13]: 97.5%
